Measured values as given in paper PMC4359187 (Drugs in R&D, 2015).

What was measured:
[1] = tested on: treatment-naïve HIV-1-infected patients; assay: Continuous Holter 12-lead ECG; assay type: in vivo, human; details: modified saquinavir/ritonavir regimen
[2] = tested on: hERG channels heterologously expressed in HEK293 cells; details: cited from earlier work
[3] = tested on: HIV-positive patients; details: saquinavir monotherapy, 84 patients; cited from earlier work

Structure (SMILES): CC(C)(C)NC(=O)[C@@H]1C[C@@H]2CCCC[C@@H]2CN1C[C@@H](O)[C@H](Cc1ccccc1)NC(=O)[C@H](CC(N)=O)NC(=O)c1ccc2ccccc2n1 [Saquinavir, saquinavir]
- Correlation between maximum ∆QTcFdense and C max of saquinavir [1]: No strong correlation
- Blockage of hERG channels ([2]; hERG heterologously expressed in HEK293 cells): dose-dependent blockage
- Effect on hERG trafficking ([2]; in vitro): inhibitory effects
- Clinical EC50 value, C min [3]: 0.05 µg/mL
